# PubChem BioAssay (NCI)
#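 Cells were grown in 96-well plates and exposed to each compound for 48 hours at five concentrations; endpoints were interpolated linearly between bracketing concentrations, or set to the highest concentration if not reached. GI50 = concentration required for 50% inhibition of growth. Definition used: TGI = concentration required for complete inhibition of growth.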
# What was measured:
# Experiment in all cases: growth of human tumour cells (NCI), 48 h
# 786-0 renal = system: 786-0 renal
# A498 renal = system: A498 renal
# ACHN renal = system: ACHN renal
# BT-549 breast = system: BT-549 breast
# CAKI-1 renal = system: CAKI-1 renal
# CCRF-CEM leukemia = system: CCRF-CEM leukemia
# COLO 205 colon = system: COLO 205 colon
# DU-145 prostate = system: DU-145 prostate
# EKVX NSCLC = system: EKVX NSCLC
# HCC-2998 colon = system: HCC-2998 colon
# HCT-116 colon = system: HCT-116 colon
# HCT-15 colon = system: HCT-15 colon
# HL-60(TB) leukemia = system: HL-60(TB) leukemia
# HOP-62 NSCLC = system: HOP-62 NSCLC
# HOP-92 NSCLC = system: HOP-92 NSCLC
# HS 578T breast = system: HS 578T breast
# HT29 colon = system: HT29 colon
# K-562 leukemia = system: K-562 leukemia
# KM12 colon = system: KM12 colon
# LOX IMVI melanoma = system: LOX IMVI melanoma
# M14 melanoma = system: M14 melanoma
# MALME-3M melanoma = system: MALME-3M melanoma
# MCF7 breast = system: MCF7 breast
# MDA-MB-231 breast = system: MDA-MB-231 breast
# MDA-MB-435 = system: MDA-MB-435
# MOLT-4 leukemia = system: MOLT-4 leukemia
# NCI-H226 lung = system: NCI-H226 lung
# NCI-H23 lung = system: NCI-H23 lung
# NCI-H460 lung = system: NCI-H460 lung
# NCI-H522 lung = system: NCI-H522 lung
# NCI/ADR-RES ovarian = system: NCI/ADR-RES ovarian
# OVCAR-3 ovarian = system: OVCAR-3 ovarian
# OVCAR-4 ovarian = system: OVCAR-4 ovarian
# OVCAR-5 ovarian = system: OVCAR-5 ovarian
# OVCAR-8 ovarian = system: OVCAR-8 ovarian
# PC-3 prostate = system: PC-3 prostate
# RPMI-8226 leukemia = system: RPMI-8226 leukemia
# RXF 393 renal = system: RXF 393 renal
# SF-268 CNS = system: SF-268 CNS
# SF-295 CNS = system: SF-295 CNS
# SF-539 CNS = system: SF-539 CNS
# SK-MEL-2 melanoma = system: SK-MEL-2 melanoma
# SK-MEL-28 melanoma = system: SK-MEL-28 melanoma
# SK-MEL-5 melanoma = system: SK-MEL-5 melanoma
# SK-OV-3 ovarian = system: SK-OV-3 ovarian
# SN12C renal = system: SN12C renal
# SNB-19 CNS = system: SNB-19 CNS
# SNB-75 CNS = system: SNB-75 CNS
# SR leukemia = system: SR leukemia
# SW-620 colon = system: SW-620 colon
# T-47D breast = system: T-47D breast
# TK-10 renal = system: TK-10 renal
# UACC-257 melanoma = system: UACC-257 melanoma
# UACC-62 melanoma = system: UACC-62 melanoma
# UO-31 renal = system: UO-31 renal
structure (smiles),measurement,setting,value
Nc1cc2c([nH]c[n+]2CC#CCCl)c(SCC#CCCl)n1,GI50,786-0 renal,1270 nM
same,TGI,786-0 renal,3050 nM
same,GI50,A498 renal,1100 nM
same,TGI,A498 renal,2440 nM
same,GI50,ACHN renal,580 nM
same,TGI,ACHN renal,2940 nM
same,GI50,BT-549 breast,1150 nM
same,TGI,BT-549 breast,2420 nM
same,GI50,CAKI-1 renal,331 nM
same,TGI,CAKI-1 renal,1360 nM
same,GI50,CCRF-CEM leukemia,562 nM
same,TGI,CCRF-CEM leukemia,> 100000 nM
same,GI50,COLO 205 colon,1460 nM
same,TGI,COLO 205 colon,2900 nM
same,GI50,DU-145 prostate,1050 nM
same,TGI,DU-145 prostate,2340 nM
same,GI50,EKVX NSCLC,1250 nM
same,TGI,EKVX NSCLC,2760 nM
same,GI50,HCC-2998 colon,1770 nM
same,TGI,HCC-2998 colon,3170 nM
same,GI50,HCT-116 colon,738 nM
same,TGI,HCT-116 colon,2350 nM
same,GI50,HCT-15 colon,1220 nM
same,TGI,HCT-15 colon,2890 nM
same,GI50,HL-60(TB) leukemia,388 nM
same,TGI,HL-60(TB) leukemia,2640 nM
same,GI50,HOP-62 NSCLC,1400 nM
same,TGI,HOP-62 NSCLC,2990 nM
same,GI50,HOP-92 NSCLC,1840 nM
same,TGI,HOP-92 NSCLC,3860 nM
same,GI50,HS 578T breast,1690 nM
same,TGI,HS 578T breast,7470 nM
same,GI50,HT29 colon,883 nM
same,TGI,HT29 colon,2520 nM
same,GI50,K-562 leukemia,1970 nM
same,TGI,K-562 leukemia,> 100000 nM
same,GI50,KM12 colon,1250 nM
same,TGI,KM12 colon,2680 nM
same,GI50,LOX IMVI melanoma,363 nM
same,TGI,LOX IMVI melanoma,1440 nM
same,GI50,M14 melanoma,1110 nM
same,TGI,M14 melanoma,2490 nM
same,GI50,MALME-3M melanoma,1090 nM
same,TGI,MALME-3M melanoma,3170 nM
same,GI50,MCF7 breast,442 nM
same,TGI,MCF7 breast,2180 nM
same,GI50,MDA-MB-231 breast,1390 nM
same,TGI,MDA-MB-231 breast,3200 nM
same,GI50,MDA-MB-435,1090 nM
same,TGI,MDA-MB-435,2630 nM
same,GI50,MOLT-4 leukemia,1320 nM
same,TGI,MOLT-4 leukemia,> 100000 nM
same,GI50,NCI-H226 lung,1220 nM
same,TGI,NCI-H226 lung,4120 nM
same,GI50,NCI-H23 lung,1230 nM
same,TGI,NCI-H23 lung,2620 nM
same,GI50,NCI-H460 lung,374 nM
same,TGI,NCI-H460 lung,1500 nM
same,GI50,NCI-H522 lung,522 nM
same,TGI,NCI-H522 lung,2080 nM
same,GI50,NCI/ADR-RES ovarian,1710 nM
same,TGI,NCI/ADR-RES ovarian,4240 nM
same,GI50,OVCAR-3 ovarian,592 nM
same,TGI,OVCAR-3 ovarian,1960 nM
same,GI50,OVCAR-4 ovarian,1570 nM
same,TGI,OVCAR-4 ovarian,7170 nM
same,GI50,OVCAR-5 ovarian,2130 nM
same,TGI,OVCAR-5 ovarian,3680 nM
same,GI50,OVCAR-8 ovarian,1620 nM
same,TGI,OVCAR-8 ovarian,6020 nM
same,GI50,PC-3 prostate,1400 nM
same,TGI,PC-3 prostate,4340 nM
same,GI50,RPMI-8226 leukemia,1000 nM
same,TGI,RPMI-8226 leukemia,6570 nM
same,GI50,RXF 393 renal,1200 nM
same,TGI,RXF 393 renal,2560 nM
same,GI50,SF-268 CNS,552 nM
same,TGI,SF-268 CNS,2010 nM
same,GI50,SF-295 CNS,1540 nM
same,TGI,SF-295 CNS,3080 nM
same,GI50,SF-539 CNS,1620 nM
same,TGI,SF-539 CNS,3240 nM
same,GI50,SK-MEL-2 melanoma,1650 nM
same,TGI,SK-MEL-2 melanoma,4470 nM
same,GI50,SK-MEL-28 melanoma,1340 nM
same,TGI,SK-MEL-28 melanoma,2750 nM
same,GI50,SK-MEL-5 melanoma,1190 nM
same,TGI,SK-MEL-5 melanoma,2430 nM
same,GI50,SK-OV-3 ovarian,1370 nM
same,TGI,SK-OV-3 ovarian,2810 nM
same,GI50,SN12C renal,1160 nM
same,TGI,SN12C renal,3420 nM
same,GI50,SNB-19 CNS,1400 nM
same,TGI,SNB-19 CNS,2840 nM
same,GI50,SNB-75 CNS,1140 nM
same,TGI,SNB-75 CNS,2400 nM
same,GI50,SR leukemia,336 nM
same,TGI,SR leukemia,16400 nM
same,GI50,SW-620 colon,1170 nM
same,TGI,SW-620 colon,2700 nM
same,GI50,T-47D breast,1120 nM
same,TGI,T-47D breast,2450 nM
same,GI50,TK-10 renal,1420 nM
same,TGI,TK-10 renal,3040 nM
same,GI50,UACC-257 melanoma,821 nM
same,TGI,UACC-257 melanoma,2740 nM
same,GI50,UACC-62 melanoma,455 nM
same,TGI,UACC-62 melanoma,1860 nM
same,GI50,UO-31 renal,763 nM
same,TGI,UO-31 renal,2330 nM
